Several values for one entry are separate records, joined by “and”; a condition that tells them apart may be missing. Equal entries are not always repeated. Entries after “also recorded” stand apart in the source; their conditions may differ. Values belong to the molecule of their own block, whether it stands above or below them.
Key:
[1] = target: T1, P-gp (CEMVBL cells) (Homo sapiens, UniProt P08183); assay: Effect of PZQ and tariquidar on intracellular accumulation of SQV in CEMVBL cells (inhibition study); format: cell-based
T1 construct: CEMVBL cells that have increased expression of P-gp were selected under vinblastine; endogenous in cells; host or cells: CEMVBL (vinblastine-selected CEM T-lymphoblastoid cells)
T1 sequence (P08183 whole entry): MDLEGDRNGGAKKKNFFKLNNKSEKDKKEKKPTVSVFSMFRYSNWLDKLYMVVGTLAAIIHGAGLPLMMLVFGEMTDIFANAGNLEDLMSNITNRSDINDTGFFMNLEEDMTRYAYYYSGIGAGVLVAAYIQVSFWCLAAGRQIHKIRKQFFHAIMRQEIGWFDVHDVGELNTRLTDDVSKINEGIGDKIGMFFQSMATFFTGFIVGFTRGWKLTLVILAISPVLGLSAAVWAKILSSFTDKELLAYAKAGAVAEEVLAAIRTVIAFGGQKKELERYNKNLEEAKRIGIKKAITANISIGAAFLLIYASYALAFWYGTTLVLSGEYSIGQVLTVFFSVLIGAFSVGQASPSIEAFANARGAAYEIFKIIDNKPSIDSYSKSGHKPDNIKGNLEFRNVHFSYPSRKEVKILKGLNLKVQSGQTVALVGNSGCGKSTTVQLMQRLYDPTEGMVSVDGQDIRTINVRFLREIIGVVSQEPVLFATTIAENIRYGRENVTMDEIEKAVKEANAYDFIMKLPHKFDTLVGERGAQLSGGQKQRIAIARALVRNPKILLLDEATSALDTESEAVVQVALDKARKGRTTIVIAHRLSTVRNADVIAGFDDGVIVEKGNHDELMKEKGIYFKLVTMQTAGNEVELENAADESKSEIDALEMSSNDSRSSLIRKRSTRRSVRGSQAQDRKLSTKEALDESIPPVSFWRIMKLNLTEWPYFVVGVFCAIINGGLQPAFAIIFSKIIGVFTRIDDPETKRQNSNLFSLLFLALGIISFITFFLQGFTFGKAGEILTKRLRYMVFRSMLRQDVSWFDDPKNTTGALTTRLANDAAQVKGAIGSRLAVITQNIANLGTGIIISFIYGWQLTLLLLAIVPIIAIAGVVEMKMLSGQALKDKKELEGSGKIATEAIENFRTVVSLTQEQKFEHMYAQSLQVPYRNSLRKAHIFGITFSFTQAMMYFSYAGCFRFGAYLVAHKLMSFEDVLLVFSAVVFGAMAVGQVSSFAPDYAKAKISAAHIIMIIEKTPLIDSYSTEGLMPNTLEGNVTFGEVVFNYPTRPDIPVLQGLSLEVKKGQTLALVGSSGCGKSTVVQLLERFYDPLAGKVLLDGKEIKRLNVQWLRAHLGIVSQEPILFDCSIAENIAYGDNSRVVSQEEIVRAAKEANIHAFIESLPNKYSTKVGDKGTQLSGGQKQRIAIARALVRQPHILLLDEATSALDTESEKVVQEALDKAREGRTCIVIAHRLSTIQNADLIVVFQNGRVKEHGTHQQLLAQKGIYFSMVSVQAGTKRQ
Procedure: (§1) The cell samples were centrifuged (2000 × g for 5 min at 4 °C) and the supernatant fraction discarded. […] The cells were then incubated at 37 °C for 30 min in a shaking water bath. The resulting cell suspensions were then centrifuged (2000 × g for 5 min at 4 °C). 100 μl samples of the supernatant fraction were then removed, and the aliquots used to determine the extracellular (EXT) concentration. The excess supernatant fraction was then discarded and the resulting cell pellet washed three times in 10 ml HBSS and centrifuged (2000 × g for 5 min). The resulting pellets were solubilized by reconstituting in 100 μl of distilled water and used to determine intracellular (INT) concentrations as described in a method previously validated in our laboratory. The experiment was carried out in quadruplicate. The samples were then assayed by HPLC, and the data expressed as cellular accumulation ratio (CAR), the ratio of the intracellular to the extracellular accumulation calculated by the formula, CAR = (INT/EXT) × 10 [intracellular concentrations were calculated using the volume of a single CEM and CEMVBL cell to be 1 picolitre (pl)] [15, 30].

[2] = tested on: CEM (parental) T-lymphoblastoid cells; assay: Effect of PZQ and tariquidar on intracellular accumulation of SQV in CEM cells (inhibition study); format: cell-based
Procedure: as §1

[3] = Freeze-thaw stability of QC samples in DMEM (HPLC); format: physicochemical; conditions: for Effect of freeze thawing on concentration in DMEM: freeze-thawed versus fresh DMEM samples; for Stability, Mean: freeze-thawed versus freshly prepared samples, peak areas
Description: The separation from endogenous compounds was investigated by analyzing six different samples of DMEM. Short and long term stability was investigated by comparing the peak areas of six freshly prepared QC assay samples to those of the freeze-thawed samples, and it was expressed as a percentage.

[4] = tested on: P-gp; set-up: method as in PMID 16846720; conditions: Caco-2 cell lines; cited from earlier work
[5] = tested on: SMDR2, a P-gp orthologue; set-up: method as in PMID 19726755; conditions: cited from earlier work
[6] = tested on: CEM (parental) T-lymphoblastoid cells; assay: Intracellular accumulation (substrate study) in CEM parental cells; format: in vitro ADME; conditions: 10 μg/ml drug, 30 min, 37 °C
Procedure: The parental cell line was CEM (T-lymphoblastoid cell line) was used as the parental cell line. CEMVBL cells that have increased expression of P-gp were selected under vinblastine. The selection of drug resistant cells was carried out by using increasing concentrations of vinblastine up to 100 ng/mL. CEM and CEMVBL Cells were cultured in 175 cm^2 flasks containing DMEM supplemented with 15 % FBS at 37 °C in a humidified 5 % CO2 gassed incubator, conditions which led to doubling after approximately every 24 h.
as §1, with “The resulting pellets were solubilized by reconstituting in 100 μl of distilled water and used to determine intracellular (INT) concentrations as described in a method previously validated in our laboratory. The experiment was carried out in quadruplicate.” left out, “[15, 30].” left out

[7] = tested on: cellular efflux pumps (P-gp); set-up: method as in PMID 15847994, PMID 20513441; conditions: cited from earlier work
[8] = tested on: CEMVBL cells which overexpress P-gp; assay: Intracellular accumulation (substrate study) in CEMVBL cells; format: in vitro ADME
Procedure: The parental cell line was CEM (T-lymphoblastoid cell line) was used as the parental cell line. CEMVBL cells that have increased expression of P-gp were selected under vinblastine. The selection of drug resistant cells was carried out by using increasing concentrations of vinblastine up to 100 ng/mL.
as §1

CAR of SQV alone, mean (inhibition study) ([1]; CEMVBL cells, 10 μg/ml SQV alone, mean (± SD), n = 4): 0.09 ± 0.015 and 0.09 | CAR of SQV alone, individual sample (inhibition study) ([1]; CEMVBL cells, 10 μg/ml SQV alone, samples 1-4): 0.07 and 0.10 and 0.11 | CAR of SQV alone, mean (inhibition study) ([2]; 10 μg/ml SQV alone, mean (± SD), n = 4): 0.52 ± 0.068 and 0.52 | CAR of SQV alone, individual sample (inhibition study) ([2]; 10 μg/ml SQV alone, samples 1-4): 0.57 and 0.50 and 0.59 and 0.44
Structure (SMILES): CC(C)(C)NC(=O)[C@@H]1C[C@@H]2CCCC[C@@H]2CN1C[C@@H](O)[C@H](Cc1ccccc1)NC(=O)[C@H](CC(N)=O)NC(=O)c1ccc2ccccc2n1 [SQV, Saquinavir]
Effect of freeze thawing on concentration in DMEM [3]: did not appear to significantly affect the concentrations

Structure (SMILES): COc1cc2c(cc1OC)CN(CCc1ccc(NC(=O)c3cc(OC)c(OC)cc3NC(=O)c3cnc4ccccc4c3)cc1)CC2 [tariquidar]
CAR of SQV in presence of tariquidar (XR), mean ([2]; 10 μg/ml SQV + 1 μM tariquidar, mean (± SD), n = 4): 0.61 ± 0.102 and 0.61 | CAR of SQV in presence of tariquidar (XR), individual sample ([2]; 10 μg/ml SQV + 1 μM tariquidar, samples 1-4, listed as XR): 0.55 and 0.51 and 0.73 and 0.66

Stability, Mean ([3]; HQC 19.2 μM in DMEM): 109 (±3) % | Stability, Mean ([3]; LQC 6.4 μM in DMEM): 105 (±4) % | Stability, Mean ([3]; MQC 12.8 μM in DMEM): 113 (±6) % | Cellular accumulation ratio (CAR), individual sample ([6]; CAR = (INT/EXT) × 10, samples 1-4): 0.03 and 0.05 and 0.04 | Cellular accumulation ratio (CAR), mean ([6]; mean (± SD), n = 4): 0.04 ± 0.009 and 0.04 | Cellular accumulation ratio (CAR), mean ([8]; CEMVBL cells, 10 μg/ml drug, 30 min, 37 °C, mean (± SD), n = 4): 0.05 ± 0.005 and 0.05 | Cellular accumulation ratio (CAR), individual sample ([8]; CEMVBL cells, 10 μg/ml drug, 30 min, 37 °C, samples 1-4): 0.06 and 0.05
Structure (SMILES): O=C(C1CCCCC1)N1CC(=O)N2CCc3ccccc3C2C1 (centres unmarked) [PZQ, Praziquantel]
P-gp inhibitor / substrate status [4]: an inhibitor of P-gp without being a substrate | P-gp inhibition (conclusion) ([1]; effect on SQV accumulation in CEMVBL cells compared to tariquidar): not an inhibitor of P-gp; also recorded: neither a substrate nor an inhibitor of P-gp | CAR of SQV in presence of PZQ, mean ([2]; 10 μg/ml SQV + 10 μg/ml PZQ, mean (± SD), n = 4): 0.54 ± 0.061 and 0.54 | CAR of SQV in presence of PZQ, individual sample ([2]; 10 μg/ml SQV + 10 μg/ml PZQ, samples 1-4): 0.45 and 0.57 and 0.59 and 0.53 | Inhibition of transport by SMDR2 [5]: inhibit the transport by SMDR2 | Effect of freeze thawing on concentration in DMEM [3]: did not appear to significantly affect the concentrations | Interaction with cellular efflux pumps / P-gp substrate status [7]: did not show potential for interacting with cellular efflux pumps; also recorded: not a substrate | Permeability [7]: highly permeable substance | P-gp substrate specificity (conclusion) ([8]; comparison of accumulation in CEM and CEMVBL cells): not a substrate of P-gp; also recorded: neither a substrate nor an inhibitor of P-gp

Source: PMC4983413, “Intracellular accumulation of Praziquantel in T lymphoblastoid cell lines, CEM (parental) and CEMVBL(P-gp-overexpressing)” (BMC Pharmacology & Toxicology, 2016)
